This is an account of results in US10206900B2, “Treatments for fibrotic diseases” (MOR RESEARCH APPLICATIONS LTD., priority 2013, dated 2019).

Common to all, as to assay type: cell-based
Assay [1] concerns p38. As to the kind of experiment: p38 phosphorylation by immuno-blot in HT29 colon cells. The note with it: HT29 Human colon cells, TGF-β treatment, versus untreated cells. On the procedure:
FIG. 11. Inhibition of TAK1 abolishes the activation of TGF-β cascades in colon cells. TGF-β1 up-regulates-Smad 2/3 and p38 activation via TAK1 activity in colon cells. HT29 Human colon cells were treated with or without 5Z-7-oxozeaenol followed by TGF-β treatment. Smad2/3 and p38 phosphorylation patterns were examined by immuno-blots. HT29 Human colon cells were treated as in the previous examples with or without 5Z-7-oxozeaenol, followed by TGF-β treatment. Inhibition of TAK1 was assayed by observation of Smad2/3 and p38 phosphorylation patterns by immuno-blots.

Assay [2] has as its system RPE cells. The experiment in a line: In vitro scratch wound healing assay upon TNFα stimulation. The note with it: 1 μM for 1 hour before 20 ng/ml TNFα, day 1 and 2. The method, then: FIG. 8A: Cell migration of RPE cells in in vitro scratch wound healing assay. RPE cells were treated with Mitomycin C for 3 hours. After the cells were treated with 1 μM 5Z-7 for 1 hour before adding 20 ng/ml TNFα and wounding on day 0. Photographs were taken at day 1 and 2, respectively, after the wound was made. FIG. 8B: Percentage of the gap size (*, P<0.05, t test); (**, P<0.01, t test). To further support the finding that TAK1 mediated EMT in RPE, we examined the migratory capacity of RPE cells, a well-known marker for EMT (Lee et al., J Cell Biol 2006, 172:973-981). Cell migration was tested by the scratch assay. The assay was performed on RPE cells pretreated or untreated with TAK1 inhibitor prior to stimulation with TGF-β1. […] At 24 hours, in the TGF-β1 treated culture, a major portion of the cells had already migrated into the wounded area, displaying almost complete wound closure at 48 hours.

The test system of assay [3] is RPE cells. As to the kind of experiment: Scratch assay, cell migration upon TGF-β1 stimulation. The note with it: 1 μM, TGF-β1 2.5 ng/ml, 24 and 48 hours. The method, then: FIGS. 2A-2C TAK1 regulates RPE cells EMT phenotype upon TGF-β stimulation. FIG. 2A: RPE cells were serum-starved for 16 hours, pretreated with 5Z-7-oxozeaenol (1 μM) or left untreated for 1 hour. The cells were then treated with TGF-β1 (2.5 ng/ml) as described herein for 24 h and immunostained with α-SMA antibodies (red) and DAPI (blue). Representative photographs of three independent experiments. The histogram in the bottom panel represents quantification of α-SMA antibody pixel intensity. FIG. 2B: RPE cells were serum-starved for 16 hours, then treated with mitomycin C (10 ng/ml) for 3 h. Thereafter, pretreated with 5Z-7-oxozeaenol (1 μM) or Dimethyl sulfoxide (DMSO) for 1 hour. Following this process a scratch was performed in the cell monolayer and the serum free medium was supplemented with TGF-β1 (2.5 ng/ml) or left unsupplemented. Scratches were photo-documented at the indicated times (top panel) and their width was measured using Image-J software. […] Bars are Mean±SD. FIG. 2C: RPE cells were serum-starved for 16 hours then pretreated with 5Z-7-oxozeaenol (1 μM) or SB431542 (10 μM), or DMSO for 1 hour. […] Total MMP-9 activities were processed by gelatin zymography (top panel) and the band intensity values were calculated by Quantity One® 1-D analysis software. […] Data is expressed as the Mean±SD. […]

Assay [4] has as its system p38. The experiment in a line: p38 phosphorylation by immuno-blot in W2b liver hepatocytes. The note with it: 1 μM for 1 hour, TGF-β 2.5 ng/ml. The method, then:
FIG. 10: Inhibition of TAK1 abolishes the activation of TGF-β cascades in liver cells. TGF-β1 up-regulates-Smad 2/3 and p38 activation and E-cadherin expression via TAK1 activity in hepatic cells. W2B liver hepatocytes cells were treated with or without 5Z-7-oxozeaenol followed by TGF-β treatment and Smad2/3 and p38 phosphorylation patterns were examined by immuno-blots. W2b liver hepatocytes cells were treated with or without 5Z-7-oxozeaenol (1 μM) for 1 hour followed by TGF-β treatment (2.5 ng/ml) for the indicated times. Smad2/3 and p38 phosphorylation patterns were examined by immuno-blots as described above.

As to `COc1cc(O)c2c(c1)/C=C/C[C@H](O)[C@H](O)C(=O)/C=C\C[C@H](C)OC2=O` [5Z-7-oxozeaenol], the p38 phosphorylation result in the assay on p38 [1] is listed as “significantly inhibited”. In addition, in the assay on RPE cells [2], the “migration rates of RPE cells treated with TNFα” value is listed as “inhibited the migration rates”. Further, in the assay with RPE cells [3], the “migratory capacity of TGF-β1 stimulated cells (scratch assay)” value was “abolished their migratory capacity”. In the assay with p38 [4], the p38 activation entry is listed as “barely detectable”.
